Key:
Assay type in all cases: physicochemical
[1] = Ozone gas fastness test of a recorded image; details: ozone 40 ppm, 60% RH, 24° C., 3 hours, glossy paper
Method: A liquid of a composition shown in the following Table 3 is prepared using a compound (Compound No. 1) obtained in (2) of the above Example 1, followed by filtration with a 0.45 μm membrane filter to obtain each water-based ink composition for inkjet recording. Ion exchange water was used as water. In addition, water and ammonia water were added thereto to adjust the pH of the ink composition to 7 to 10 and a total amount of the ink composition to 100 parts. The test using the compound obtained in (2) of Example 1 is Example 7. Similarly the tests using the compounds obtained in Examples 2 to 6 are Examples 8 to 12 respectively. Using an inkjet printer (Pixus 860i from Canon Inc.), inkjet recording was conducted on glossy paper having an ink-receiving layer containing a porous white inorganic substance (Professional Photopaper PR-101 from Canon Inc.). In inkjet recording, an image pattern was made so as to obtain gradations of several stages in printing density, and a print was made. Using an ozone weatherometer (from Suga Testing Machine Co., Ltd.), a piece of testing paper printed on glossy paper from Canon, Inc. was left for 3 hours under conditions of ozone concentration of 40 ppm, humidity of 60% RH and temperature of 24° C., and color difference (ΔE) before and after the test was measured and evaluated on 3 levels. • ΔE≦20 . . . ∘ • 20<ΔE≦40 . . . Δ • 40<ΔE . . . x

[2] = Xenon light fastness test of a recorded image; details: xenon weatherometer Ci4000, 50 hours, 0.36 W/m^2, 2 mm glass plate and air layer, printed glossy paper and plain paper
Method: (§1) A liquid of a composition shown in the following Table 3 is prepared using a compound (Compound No. 1) obtained in (2) of the above Example 1, followed by filtration with a 0.45 μm membrane filter to obtain each water-based ink composition for inkjet recording. Ion exchange water was used as water. In addition, water and ammonia water were added thereto to adjust the pH of the ink composition to 7 to 10 and a total amount of the ink composition to 100 parts. The test using the compound obtained in (2) of Example 1 is Example 7. Similarly the tests using the compounds obtained in Examples 2 to 6 are Examples 8 to 12 respectively.
(§2) Using an inkjet printer (Pixus 860i from Canon Inc.), inkjet recording was conducted on glossy paper having an ink-receiving layer containing a porous white inorganic substance (Professional Photopaper PR-101 from Canon Inc.). In inkjet recording, an image pattern was made so as to obtain gradations of several stages in printing density, and a print was made.
Using a xenon weatherometer Ci4000 (from ATLAS Co., Ltd.), pieces of testing paper of printed glossy paper and plain paper from Canon, Inc., on which a glass plate having a thickness of 2 mm and an air layer were set up, were irradiated for 50 hours at illuminance of 0.36 W/m^2, and color difference (ΔE) before and after the test was measured and evaluated on 3 levels. • ΔE≦10 . . . ∘ • 10<ΔE≦20 . . . Δ • 20<ΔE . . . x The results are shown in Table 5. (E) Ozone Gas Fastness Test of a Recorded Image

[3] = Evaluation of hue and vividness of a recorded image on glossy paper (colorimetry, GRETAG SPM50); details: for Vividness C*: C*=((a*)^2+(b*)^2)^1/2, glossy paper PR-101; for Vividness C* (3-level evaluation): glossy paper PR-101; for Brilliance L* / Hue a* / Hue b*: inkjet print of Table 3 ink (3.0 parts compound) on glossy paper Professional Photopaper PR-101
Method: as §1, §2
Hue and vividness in a recorded image : recorded paper was measured using a colorimetric system (GRETAG SPM50 from GRETAG Co., Ltd.), values of L*, a* and b* were calculated, and for vividness, C*=((a*)^2+(b*)^2)^1/2 was calculated from color level (a* and b*) where color level a* of each recording paper is similar. And vividness was evaluated on the following 3 levels judging from the measured results and the results are shown jointly in Table 4. • 90≦C* . . . ∘ • 80≦C*<90 . . . Δ

SMILES | Ozone fastness (color difference ΔE before and after the test, 3 levels) [1] | Light fastness (color difference ΔE before and after the test, 3 levels) [2] | Vividness C* [3] | Vividness C* (3-level evaluation) [3] | Brilliance L* [3] | Hue a* [3] | Hue b* [3]
Cc1c(C#N)c(NCCS(=O)(=O)O)nc(NCCS(=O)(=O)O)c1N=Nc1nc2ccccc2s1 [Compound No. 1] | ∘ (ΔE≦20) | ∘ (ΔE≦10) | 109.7 | ∘ (90≦C*) | 66.8 | 53.7 | 96.1
Cc1c(C#N)c(NCCS(=O)(=O)O)nc(NCCS(=O)(=O)O)c1N=Nc1nc2ccc(S(=O)(=O)O)cc2s1 [Compound No. 2] | ∘ (ΔE≦20) | ∘ (ΔE≦10) | 101.9 | ∘ (90≦C*) | 68.3 | 53.5 | 86.8

The next lines start with the values.

Ozone fastness (color difference ΔE before and after the test, 3 levels) [1] | Light fastness (color difference ΔE before and after the test, 3 levels) [2] | Vividness C* [3] | Vividness C* (3-level evaluation) [3] | Brilliance L* [3] | Hue a* [3] | Hue b* [3] | SMILES
∘ (ΔE≦20) | ∘ (ΔE≦10) |  |  |  |  |  | Cc1c(C#N)c(NCCS(=O)(=O)O)nc(NCCS(=O)(=O)O)c1N=Nc1nc2ccc(S(C)(=O)=O)cc2s1 [Compound No. 3]
∘ (ΔE≦20) | ∘ (ΔE≦10) |  |  |  |  |  | Cc1c(C#N)c(NCCS(=O)(=O)O)nc(NCCS(=O)(=O)O)c1N=Nc1nc2ccc(C(=O)O)cc2s1 [Compound No. 5]
∘ (ΔE≦20) | ∘ (ΔE≦10) |  |  |  |  |  | Cc1c(C#N)c(NCCS(=O)(=O)O)nc(NCCS(=O)(=O)O)c1/N=N/c1snc2ccc(S(=O)(=O)O)cc12 [Compound No. 8]
∘ (ΔE≦20) | ∘ (ΔE≦10) |  |  |  |  |  | COc1ccc2nc(N=Nc3c(NCCS(=O)(=O)O)nc(NCCS(=O)(=O)O)c(C#N)c3C)sc2c1 [Compound No. 4]
